Results on two compounds are retold here after patent publication US6903124B2, “Organic acid salt of amlodipine” (CJ Corp, priority 2002, dated 2005).

Holding throughout (assay type): physicochemical
Data set [1] is described as follows: Chemical stability in aqueous state, 25° C., 4 weeks in complete darkness, HPLC. The settings on record: distilled water. On the procedure:
(§1) HPLC Analysis Conditions: • Detector: UV Absorbance (at 237 nm) • Column: Octadesyl silica gel C18 (4.6 mm×150 mm, 5 μm) • Mobile Phase: Potassium dihydrogenphosphate monobasic (0.03M): methanol=4:6 (v/v) • Flow Rate: 1.5 ml/min
The resulting aqueous solutions were stored at 25° C. for 4 weeks in complete darkness, after which a measurement was made of the contents of the salts with resort to HPLC under the same conditions as in the solid state.

Data set [2] can be described thus: Test for hygroscopicity: water content (K. F. water %) at 25° C. under various humidity conditions. The settings on record: for water content (K. F. water %): 25° C.
A short description of data set [3]: Chemical stability in solid state, accelerated test at 60° C., HPLC content. On the procedure: as §1
The next data set in a line: physchem. As to conditions: 37 °C.

With `CCOC(=O)C1=C(COCCN)NC(C)=C(C(=O)OC)C1c1ccccc1Cl` (stereo not drawn) [Besylate, amlodipine besylate, reference compound], the “stability in aqueous state (decomposition products, content change)” value in data set [1] is listed as “neither decomposition products nor content change is found”. Further, the “water content (K. F. water %)” value in data set [2] (25% RH, 1 week storage) is 0.10%; in data set [2] (60% RH, 1 week storage) it was 0.09%; in data set [2] (75% RH, 1 week storage) it was 0.15%; in data set [2] (95% RH, 1 week storage), 0.17%; in data set [2] (Initial) it was 0.14%. Further, in data set [3], the “change in content, accelerated test” value is “virtually no changes”. The HPLC content in data set [3] (1 week) was 99.6%; in data set [3] (2 weeks), 99.4%; in data set [3] (3 weeks) it was 99.2%; in data set [3] (initial) it was 99.6%.

For `CCOC(=O)C1=C(COCCN)NC(C)=C(C(=O)OC)C1c1ccccc1Cl.CCS(=O)(=O)O` (stereo not drawn) [Ethanesulfonate, amlodipine ethanesulfonate], the solubility – broadly, the concentration that dissolves in the medium under given conditions – in “physchem” (pH 2, aqueous buffer) is greater than 200 mg/mL; in “physchem” (pH 4, aqueous buffer), greater than 200 mg/mL; in “physchem” (pH 6, aqueous buffer), greater than 200 mg/mL; in the data set “physchem” (pH 7, aqueous buffer), greater than 200 mg/mL; in the data set “physchem” (pH 7.4, aqueous buffer), greater than 200 mg/mL; in “physchem” (pH 8, aqueous buffer), greater than 200 mg/mL. The solubility in the data set “physchem” (water) was greater than 200 mg/mL. Moreover, the “stability in aqueous state (decomposition products, content change)” value in data set [1] is recorded as “neither decomposition products nor content change is found”. In addition, the “water content (K. F. water %)” value is listed as 0.08% in data set [2] (25% RH, 1 week storage); 0.09% in data set [2] (60% RH, 1 week storage); 0.13% in data set [2] (75% RH, 1 week storage); 0.15% in data set [2] (95% RH, 1 week storage); 0.12% in data set [2] (Initial). For the same compound, the hygroscopicity in data set [2] (relative humidity 95%) is listed as no more than 0.5%. Besides, in data set [3], the “change in content, accelerated test” value is on record as “virtually no changes”. The HPLC content was found to be 99.6% in data set [3] (1 week), 99.6% in data set [3] (2 weeks), 99.5% in data set [3] (3 weeks) and 99.7% in data set [3] (initial).
